# Assay results reported in ChEMBL document CHEMBL1158812, “Monoterpene lactones from the seeds of Nephelium lappaceum” (2005).
# Assays:
# Type in all cases: functional
# Escherichia coli [1] = assay: Antibacterial activity against Escherichia coli UPCC 1195 assessed as activity index at 30 ug by agar well method relative to control
# Escherichia coli [2] = assay: Antibacterial activity against Escherichia coli UPCC 1195 at 30 ug by agar well method; details: read-out: IZ
# Pseudomonas aeruginosa [3] = assay: Antibacterial activity against Pseudomonas aeruginosa UPCC 1244 at 30 ug by agar well method; details: read-out: IZ
# Staphylococcus aureus [4] = assay: Antibacterial activity against Staphylococcus aureus UPCC 1143 at 30 ug by agar well method; details: read-out: IZ
# Bacillus subtilis [5] = assay: Antibacterial activity against Bacillus subtilis UPCC 1295 at 30 ug by agar well method; details: read-out: IZ
# Pseudomonas aeruginosa [6] = assay: Antibacterial activity against Pseudomonas aeruginosa UPCC 1244 assessed as activity index at 30 ug by agar well method relative to control
# Staphylococcus aureus [7] = assay: Antibacterial activity against Staphylococcus aureus UPCC 1143 assessed as activity index at 30 ug by agar well method relative to control
# Bacillus subtilis [8] = assay: Antibacterial activity against Bacillus subtilis UPCC 1295 assessed as activity index at 30 ug by agar well method relative to control
# Candida albicans [9] = assay: Antimicrobial activity against Candida albicans UPCC 2168 at 30 ug by agar well method; details: read-out: IZ
# [10] = test system: Trichophyton mentagrophytes; assay: Antimicrobial activity against Trichophyton mentagrophytes UPCC 4193 at 30 ug by agar well method; details: read-out: IZ
# Aspergillus niger [11] = assay: Antimicrobial activity against Aspergillus niger UPCC 4219 at 30 ug by agar well method; details: read-out: IZ
# Candida albicans [12] = assay: Antimicrobial activity against Candida albicans UPCC 2168 assessed as activity index at 30 ug by agar well method relative to control
# [13] = test system: Trichophyton mentagrophytes; assay: Antimicrobial activity against Trichophyton mentagrophytes UPCC 4193 assessed as activity index at 30 ug by agar well method relative to control
# Aspergillus niger [14] = assay: Antimicrobial activity against Aspergillus niger UPCC 4219 assessed as activity index at 30 ug by agar well method relative to control
smiles,measurement,setting,value
O=C(N[C@H](CO)[C@H](O)c1ccc([N+](=O)[O-])cc1)C(Cl)Cl [CHLORAMPHENICOL],Activity_index,Escherichia coli [1],2.8
same,zone of inhibition at 30 µg/disc,Escherichia coli [2],23 mm
same,zone of inhibition at 30 µg/disc,Pseudomonas aeruginosa [3],14 mm
same,zone of inhibition at 30 µg/disc,Staphylococcus aureus [4],25 mm
same,zone of inhibition at 30 µg/disc,Bacillus subtilis [5],20 mm
same,Activity_index,Pseudomonas aeruginosa [6],1.3
same,Activity_index,Staphylococcus aureus [7],3.2
same,Activity_index,Bacillus subtilis [8],2.3
O=C1C[C@@]2(CO1)CO[C@@]1(CO)CC(=O)O[C@@H]21 [LAPPACEOLIDE A],Activity_index,Escherichia coli [1],0.1
same,zone of inhibition at 30 µg/disc,Escherichia coli [2],11 mm
same,zone of inhibition at 30 µg/disc,Pseudomonas aeruginosa [3],12 mm
same,zone of inhibition at 30 µg/disc,Staphylococcus aureus [4],11 mm
same,zone of inhibition at 30 µg/disc,Candida albicans [9],13 mm
same,zone of inhibition at 30 µg/disc,[10],14 mm
same,zone of inhibition at 30 µg/disc,Aspergillus niger [11],12 mm
same,Activity_index,Pseudomonas aeruginosa [6],0.2
same,Activity_index,Staphylococcus aureus [7],0.1
same,Activity_index,Bacillus subtilis [8],0
same,Activity_index,Candida albicans [12],0.3
same,Activity_index,[13],0.4
same,Activity_index,Aspergillus niger [14],0.2
O=C1C[C@]2(CO1)CO[C@@]1(CO)CC(=O)O[C@@H]21 [LAPPACEOLIDE B],Activity_index,Escherichia coli [1],0.1
same,zone of inhibition at 30 µg/disc,Escherichia coli [2],11 mm
same,zone of inhibition at 30 µg/disc,Pseudomonas aeruginosa [3],12 mm
same,zone of inhibition at 30 µg/disc,Staphylococcus aureus [4],11 mm
same,zone of inhibition at 30 µg/disc,Candida albicans [9],13 mm
same,zone of inhibition at 30 µg/disc,[10],13 mm
same,zone of inhibition at 30 µg/disc,Aspergillus niger [11],11 mm
same,Activity_index,Pseudomonas aeruginosa [6],0.2
same,Activity_index,Staphylococcus aureus [7],0.1
same,Activity_index,Bacillus subtilis [8],0
same,Activity_index,Candida albicans [12],0.3
same,Activity_index,[13],0.3
same,Activity_index,Aspergillus niger [14],0.1
